Data published in PubChem BioAssay AID686931 (Broad Institute, 2013).
Several values for one entry are separate records, joined by “and”; a condition that tells them apart may be missing. Equal values may be shown once. Activity calls are given as the source filed them. No rule for the calls is given here.

Tests used:
[1] = Confirmatory dose response, V. cholerae DH231 delta cqsS, luciferase light activation (AID 686931); conditions: V. cholerae DH231 (delta cqsS) luciferase light production
[2] = tested on: V. cholerae DH231 (delta cqsS) luciferase light production; experiment: as above

Row | Compound | activation ([1]; at 100 µM (top of the series)) | AC40 [2] | also measured
1 | CC(C)c1ccc2cc3c(NC(=O)c4ccco4)nn(C)c3nc2c1 | 2.47% (inactive) |  | 
2 | CN1CCC(C(=O)Nc2nnc(-c3ccc4c(c3)OCCO4)o2)CC1 | 0.079% (inactive) |  | 
3 | O=C(Nc1nnc(-c2ccc(Cl)cc2)o1)C1CCCCC1 |  |  | activation ([1]; at 80 µM (top of the series)): -1.2% (inactive)
4 | COc1ccc(-c2nnc(NC(=O)C3CCCCC3)o2)cc1 |  | > 100 µM (inactive) | 
5 | Cc1ccc2cc3c(NC(=O)c4cccs4)nn(C)c3nc2c1 |  | 75.3 µM | 
6 | C(=N\c1nnc(-c2ccc3c(c2)OCCO3)o1)/c1ccccc1 | 0.573% (inactive) |  | 
7 | COc1cccc(-c2nnc(NC(=O)C3CCCCC3)o2)c1 | 3.05% (inactive) |  | 
8 | Cc1ccc2cc3c(NC(=O)c4ccccn4)nn(C)c3nc2c1 | 1.04% (inactive) |  | 
9 | O=C(Nc1nnc(-c2ccc3c(c2)CCCC3)o1)C1CCC1 |  |  | activation ([1]; at 80 µM (top of the series)): -0.346% (inactive)
10 | Cc1cc(F)cc2nc3c(cc12)c(NC(=O)c1ccco1)nn3C |  | 70.7 µM | 
11 | Cn1nc(NC(=O)c2ccco2)c2cc3ccccc3nc21 |  | 4.18 µM | 
12 | COc1ccccc1-c1nnc(NC(=O)C2CCCCC2)o1 |  | > 100 µM (inactive) | 
13 | O=C(Nc1nnc(-c2ccc3c(c2)OCCO3)o1)C1CCCCCC1 |  | 10.5 µM | 
14 | O=C(Nc1nnc(-c2ccc3c(c2)OCCO3)o1)C1CC1 | -0.326% (inactive) |  | 
15 | Cc1ccc2cc3c(NC(=O)c4cc5ccccc5o4)nn(C)c3nc2c1 | 0.496% (inactive) |  | 
16 | Cc1cc2nc3c(cc2cc1F)c(NC(=O)c1ccco1)nn3C |  | 21.7 µM | 
17 | O=C(Nc1nnc(-c2cccc(Cl)c2)o1)C1CCCCC1 |  |  | activation ([1]; at 80 µM (top of the series)): 1.82% (inactive)
18 | Cn1nc(NC(=O)c2ccco2)c2ccccc21 |  | 78.1 µM | 
19 | Cc1ccc2cc3c(NC(=O)C4CCCC4)nn(C)c3nc2c1 |  | 37.9 µM | 
20 | O=S(=O)(Nc1nnc(-c2ccc3c(c2)OCCO3)o1)c1ccc(Cl)cc1 | -1.11% (inactive) |  | 
21 | CCCCCCCCCC(=O)C(O)CC (configuration not stated) |  |  | activation ([1]; at 50 µM (top of the series)): -0.408% (inactive)
22 | Cc1ccc2cc3c(NC(=O)c4ccco4)nn(C)c3nc2c1 |  | 6.52 µM and 15.8 µM | 
23 | Cc1cc(F)c2cc3c(NC(=O)c4ccco4)nn(C)c3nc2c1 |  | 76.2 µM | 
24 | Cc1ccc2cc3c(NC(=O)c4ccoc4)nn(C)c3nc2c1 |  |  | activation ([1]; at 80 µM (top of the series)): 10.6% (inactive)
25 | O=C(Nc1nnc(-c2cccnc2)o1)C1CCC1 | 0.588% (inactive) |  | 
26 | O=C(Nc1nnc(-c2cccnc2)o1)C1CCCCC1 |  | 88.1 µM | 

Row | Compound | activation ([1]; at 100 µM (top of the series)) | AC40 [2] | also measured
27 | COc1ccc(S(=O)(=O)Nc2nnc(-c3ccc4c(c3)OCCO4)o2)cc1 | -1.4% (inactive) |  | 
28 | c1ccc(CNc2nnc(-c3ccc4c(c3)OCCO4)o2)cc1 | -0.54% (inactive) |  | 
29 | CCn1nnnc1NCc1ccc(C(C)C)cc1 | -0.577% (inactive) |  | 
30 | Cn1ccc(NC(=O)c2ccco2)n1 | 0.502% (inactive) |  | 
31 | Cn1nc(NC(=O)c2ccco2)c2cc3ccc(C(C)(C)C)cc3nc21 | -1.04% (inactive) |  | 
32 | CC(C)(C)OC(=O)N1CCC(C(=O)Nc2nnc(-c3ccc4c(c3)OCCO4)o2)CC1 | 0.619% (inactive) |  | 
33 | CN(C)/C=N/c1nnc(-c2ccc3c(c2)OCCO3)o1 | -0.521% (inactive) |  | 
34 | O=C(Nc1nnc(-c2ccc3c(c2)OCCO3)o1)C1CCC1 | 0.218% (inactive) |  | 
35 | O=C(Nc1nnc(-c2ccc3c(c2)OCCO3)o1)C(F)(F)c1ccccc1 | -1.19% (inactive) |  | 
36 | O=C(Cc1ccc(-c2ccccc2)cc1)NC1CCC1 | -0.546% (inactive) |  | 
37 | Cc1ccc2cc3c(NC(=O)Cc4ccco4)nn(C)c3nc2c1 | 13.6% (inactive) |  | 
38 | O=C(Nc1nnc(C2CCCC2)o1)C1CCCCC1 | -0.731% (inactive) |  | 
39 | O=C(Nc1nnc(-c2ccc3c(c2)OCCO3)o1)C1CCCCC1 |  | 4.54 µM and 1.67 µM | 
40 | Cn1nc(NC(=O)c2ccco2)c2cccnc21 |  | 20.4 µM | 
41 | CCc1ccc2cc3c(NC(=O)c4ccco4)nn(C)c3nc2c1 |  | 31 µM | 
42 | O=C(CC1CCCCC1)Nc1nnc(-c2ccc3c(c2)CCCC3)o1 |  |  | activation ([1]; at 35 µM (top of the series)): 0.843% (inactive)
43 | Cc1cc2cc3c(NC(=O)c4ccco4)nn(C)c3nc2cc1C |  | 22.2 µM | 
44 | O=C(Nc1nnc(-c2ccc3c(c2)OCCO3)o1)C1CCCC1 |  |  | activation ([1]; at 80 µM (top of the series)): 8.16% (inactive)
45 | CCCCCCCCCC(=O)[C@H](O)CC (racemic) | -0.642% (inactive) |  | 
46 | O=C(Nc1nnc(-c2ccncc2)o1)C1CCC1 | 0.692% (inactive) |  | 
47 | O=C(Nc1nnc(-c2ccccc2Cl)o1)C1CCCCC1 | 0.072% (inactive) |  | 
48 | O=C(CC1CCCCC1)Nc1nnc(-c2cccnc2)o1 |  |  | activation ([1]; at 80 µM (top of the series)): -0.959% (inactive)
49 | Cc1ccc2cc3c(NC(=O)c4ccc(C)o4)nn(C)c3nc2c1 | 0.174% (inactive) |  | 
50 | COc1ccc(-c2nnc(NC(C)=O)o2)cc1 | 1.64% (inactive) |  | 
51 | CCC(C)(C)C(=O)Nc1nnc(-c2ccc3c(c2)OCCO3)o1 |  |  | activation ([1]; at 80 µM (top of the series)): 0.359% (inactive)
52 | COc1ccc2cc3c(NC(=O)c4ccco4)nn(C)c3nc2c1 |  | 1.83 µM | 
